# Reference: US6492137B1, “Response element compositions and assays employing same” (The Salk Institute for Biological Studies, priority 1989, dated 2002)
# Target: T1, RARα (Homo sapiens, UniProt P10276)
# T1 sequence (P10276 1-462): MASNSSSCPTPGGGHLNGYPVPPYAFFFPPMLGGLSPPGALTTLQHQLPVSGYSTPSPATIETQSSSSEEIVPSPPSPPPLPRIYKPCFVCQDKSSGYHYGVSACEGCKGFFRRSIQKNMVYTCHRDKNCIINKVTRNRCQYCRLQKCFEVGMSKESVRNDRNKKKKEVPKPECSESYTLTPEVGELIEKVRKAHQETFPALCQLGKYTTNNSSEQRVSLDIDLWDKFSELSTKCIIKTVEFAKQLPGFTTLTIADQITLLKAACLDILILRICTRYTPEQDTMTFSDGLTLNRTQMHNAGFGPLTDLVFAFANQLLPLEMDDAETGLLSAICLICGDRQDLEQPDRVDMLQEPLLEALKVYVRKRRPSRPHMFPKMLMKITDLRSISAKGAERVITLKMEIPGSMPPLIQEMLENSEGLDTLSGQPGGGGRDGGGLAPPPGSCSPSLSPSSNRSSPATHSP
# Assay: ΔSV-CAT reporter cotransfection assay in CV-1 cells with RARα expression plasmid, ±RA
# Assay type: cell-based
# Set-up: expressed in transfected cells; host or cells: CV-1 (monkey kidney)
# Settings: RA 1 μM
# Excerpt: Receptor expression plasmids used in the following cotransfection assays have been described previously (pRShTRβ [see Thompson, et al., Proc. Natl. Acad. Sci. U.S.A. 86: 3494-3498 (1989)]; pRShRARα [see Giguere, et al., Nature 330: 624-629 (1987)]; pRShRARβ and pRshRARγ [see Ishikawa, et al., Mol. Endocrinol, 4: 837-844 (1990)]; and pRShVDR, [Schule, et al., Cell 61: 497-504 (1990)]. A basal reporter plasmid ΔSV-CAT was constructed by replacing the TK promoter in TK-CAT [Damm, et al., Nature 339: 593-597 (1989)] with the SphI-HindIII fragment of the SV40 early promoter. All of the recombinant CAT reporter plasmids used herein harbor a single copy of the indicated oligonucleotides at the unique HindIII site upstream of the SV40 promoter. Identity of the inserted oligonucleotides was confirmed by sequencing. To improve production of receptor proteins in COS cells, a new eukaryotic expression vector pCMX was prepared by modifying the plasmid CDM8 [Seed, B., Nature 329: 840-842 (1987)]. The CDM8 was cut with MluI and StuI in order to release the DNA fragment encoding the CMV/T7 promoter, SV40 small t intron/poly A signal, polyoma virus enhancer/origin, and SV40 enhancer/origin. The resulting fragment was ligated to a larger fragment of PvuII-digested PUC19. An internal deletion was introduced between unique BamHI and BclI sites present in the DCM8 portion. The stuffer sequence flanked by XbaI sites was replaced with a synthetic polylinker coding for 5′-KpnI/Asp718-EcoRV-BamHI -MscI-NheI-3′, followed by a stretch of 5′-[…]-3′ (SEQ ID NO:48) which can function as a universal termination signal for protein translation. The coding sequence of the luciferase [de Wet, et al., Mol. Cell. Biol. 7: 725-737 (1987)] and human TRβ, RARα, and VDR was placed in the polylinker region of the pCMX, generating pCMX-LUC, Pcmx-Htrβ, pCMX-hRARα, and pCMX-hVDR, respectively. The translation start site of the RARα was modified to […] by attaching the synthetic linker encoding a consensus translation start signal [Hollenberg, et al., Cell 55: 899-906 (1988)]. […]
substance,measurement,value
"MHC-N: 23-nucleotide core of the wild-type sequence (MHC-TRE) (SEQ ID NO:14) (AGCTGGAGGTGACAGGAGGACAGCAAGCT; DNA, backbone not given here; further chemistry not fully specified)",RA response (in words),not RA response
